Reference: US20250090627A1, “NUTRITIONAL POLYPEPTIDE HAVING BRANCHED-STRUCTURE WITH EFFICIENT BROAD-SPECTRUM ANTIBACTERIAL AND ANTIFUNGAL FUNCTIONS” (ZHEJIANG UNIVERSITY, priority 2022, published 2025)

Tests used:
[1] = tested on: methicillin-resistant Staphylococcus aureus; experiment: antibacterial effect against drug-resistant bacteria; assay type: cell-based; settings: 100 μg/mL
Protocol: The above polypeptide (prepared by Method 1) was added in methicillin-resistant Staphylococcus aureus solutions at concentrations of 10^8 and 10^9 CFU/mL respectively according to the polypeptide concentration gradient, and then co-cultured at 37° C. for 24 hours. The polypeptide was effective in killing methicillin-resistant Staphylococcus aureus in the effective concentration range. The antimicrobial rate of 100 μg/mL of polypeptide solution could reach up to 100% (FIG. 2) and 98% or more (FIG. 3) respectively.

[2] = tested on: Staphylococcus aureus; experiment: antibacterial effect, polypeptide co-cultured with microbe; assay type: cell-based; settings: polypeptide 250 μg/mL; 10^8 CFU/mL; co-cultured at 37° C. for 24 hours
[3] = tested on: Escherichia coli; experiment: as above; assay type: cell-based; settings: polypeptide 250 μg/mL; 10^8 CFU/mL; co-cultured at 37° C. for 24 hours
[4] = tested on: Pseudomonas aeruginosa; experiment: as above; assay type: cell-based; settings: polypeptide 250 μg/mL; 10^8 CFU/mL; co-cultured at 37° C. for 24 hours
[5] = tested on: Candida albicans; experiment: as above; assay type: cell-based; settings: polypeptide 250 μg/mL; 10^8 CFU/mL; co-cultured at 37° C. for 24 hours
[6] = tested on: rats; experiment: safety (acute systemic inflammation) after caudal vein injection, blood routine examination; assay type: in vivo
Protocol: (§1) The polypeptide (prepared by Method 1) of the present disclosure was dissolved in physiological saline at a concentration of 1 mg/mL and injected into rats through the caudal vein at a dose of 8 mg/kg.

[7] = tested on: rats; experiment: in vivo hemocompatibility after caudal vein injection, blood routine examination
Protocol: as §1

[8] = tested on: fibroblasts; experiment: cell viability of fibroblasts, Cell Counting Kit-8; assay type: cell-based; settings: DMEM with 10% fetal bovine serum, 48 h, effective concentration range (FIG. 4)
Protocol: The polypeptide (prepared by Method 2) of the disclosure was added at different concentrations to Dulbecco's Modified Eagle's Medium (DMEM) containing fetal bovine serum (10% by volume) and used to culture fibroblasts. Cells were seeded at 10,000 cells per well in 96-well plates, incubated at 37° C. with a medium containing polypeptides at various concentrations as described above, and the cell viability was determined after 48 h using the Cell Counting Kit-8 method.

[9] = MRSA 10^8 CFU/mL, 37° C. 24 hours (FIG. 2)
[10] = MRSA 10^9 CFU/mL, 37° C. 24 hours (FIG. 3)
[11] = 1 mg/mL in physiological saline, caudal vein, 8 mg/kg, 24 h
[12] = rat blood, 24 h after 8 mg/kg caudal vein injection (FIG. 5)
[13] = rat blood 24 h after 8 mg/kg caudal vein injection

**Q.** Which results are given for `CC1(C)S[C@@H]2[C@H](NC(=O)Cc3ccccc3)C(=O)N2[C@H]1C(=O)O` [penicillin G, reference compound]?
**A.** antimicrobial rate [1, 9]: less than 10%; antimicrobial rate [1, 10]: less than 10%

**Q.** Which results are given for “hyperbranched polylysine [polypeptide (prepared by Method 1)]”?
**A.** antibacterial effect [2]: 100%; antibacterial effect [3]: 100%; antibacterial effect [4]: 100%; antibacterial effect [5]: 100%; antimicrobial rate [1, 9]: 100%; antimicrobial rate [1, 10]: ≥ 98%; behavior of rats [6, 11]: no abnormal behavior; survival of rats ([6]; 1 mg/mL in physiological saline, caudal vein, 8 mg/kg, after 24 h): still alive; inflammatory features ([6]; rat blood routine examination, 24 h after 8 mg/kg caudal vein injection): no inflammatory features; cell concentration of lymphocytes (Lym) [6, 12]: in the normal range; cell concentration of monocytes (Mon) [6, 12]: in the normal range; cell concentration of neutrophils (Neu) [6, 12]: in the normal range; cell concentration of white blood cells (WBC) [6, 12]: in the normal range; behavior of rats [7, 11]: no abnormal behavior; survival of rats [7, 11]: survived; concentration of hemoglobin (HGB), in words [7, 13]: in the normal range; concentration of platelet (PLT), in words [7, 13]: in the normal range; concentration of red blood cell (RBC), in words [7, 13]: in the normal range; Red blood cell concentration ([7]; rat blood 24 h after injection at 1 mg/mL (8 mg/kg), normal range 6.36-9.42): 6.3 ± 0.3 10^12/L; Hemoglobin content ([7]; rat blood 24 h after injection at 1 mg/mL (8 mg/kg), normal range 110-143): 141.8 ± 10.1 g/L; Platelet concentration ([7]; rat blood 24 h after injection at 1 mg/mL (8 mg/kg), normal range 450-1590): 847.0 ± 140.1 10^9/L

**Q.** Which “cytotoxicity (cell viability)” value [8] does the source give for “hyperbranched polylysine [polypeptide (prepared by Method 2)]” here?
**A.** not cytotoxic
